In ChEMBL document CHEMBL1770072, “Antiplasmodial and antitumor activity of dihydroartemisinin analogs derived via the aza-Michael addition reaction” (Bioorg Med Chem Lett, 2011):

How the values were obtained:
[1] = tested on: HeLa; assay: Tumor specificity, ratio of IC50 for human resting and phytohaemagglutinin-stimulated lymphocytes to IC50 for human HeLa cells
[2] = tested on: Plasmodium falciparum; assay: Antiplasmodial activity against chloroquine-sensitive Plasmodium falciparum D10; type: functional, organism-based
[3] = tested on: Plasmodium falciparum; assay: Resistance index, ratio of IC50 for chloroquine-resistant Plasmodium falciparum Dd2 to IC50 for chloroquine-sensitive Plasmodium falciparum D10; type: functional
[4] = Cytotoxicity against phytohaemagglutinin-stimulated human lymphocytes after 3 days by MTT assay; type: cell-based; details: Lymphocyte, 72 h
[5] = tested on: HeLa; assay: Cytotoxicity against human HeLa cells after 7 days by MTT assay; type: functional, cell-based; details: 168 h
[6] = Cytotoxicity against human resting lymphocytes after 3 days by MTT assay; type: cell-based; details: Lymphocyte, 72 h
[7] = tested on: Plasmodium falciparum; assay: Antiplasmodial activity against chloroquine-resistant Plasmodium falciparum Dd2; type: functional, organism-based

Structure (SMILES)	Ratio IC50 [1]	IC50 [2]	Ratio IC50 [3]	IC50 [4]	IC50 [5]	IC50 [6]	IC50 [7]
C=CC(=O)O[C@@H]1O[C@@H]2O[C@@]3(C)CC[C@H]4[C@H](C)CC[C@@H]([C@H]1C)[C@@]24OO3	4	5.85 nM	1.6	11500 nM	6370 nM	39600 nM	9.27 nM
C=CC(=O)O[C@H]1O[C@@H]2O[C@@]3(C)CC[C@H]4[C@H](C)CC[C@@H]([C@H]1C)[C@@]24OO3	6.9	7.54 nM	1.6	9220 nM	2880 nM	30500 nM	12.4 nM
C[C@H]1[C@@H](OC(=O)CCNCCNc2ccnc3cc(Cl)ccc23)O[C@@H]2O[C@@]3(C)CC[C@H]4[C@H](C)CC[C@@H]1[C@@]24OO3	1.8	20.6 nM	1	16900 nM	9470 nM	> 50000 nM	20.1 nM
C[C@H]1[C@@H](OC(=O)CCNCCCNc2ccnc3cc(Cl)ccc23)O[C@@H]2O[C@@]3(C)CC[C@H]4[C@H](C)CC[C@@H]1[C@@]24OO3	2.4	18.7 nM	1.3	4710 nM	5580 nM	21500 nM	24.4 nM
C[C@H]1[C@@H](OC(=O)CCNCCCCNc2ccnc3cc(Cl)ccc23)O[C@@H]2O[C@@]3(C)CC[C@H]4[C@H](C)CC[C@@H]1[C@@]24OO3	2	24 nM	1.1	8990 nM	10100 nM	32400 nM	27.5 nM
C[C@H]1[C@@H](OC(=O)CCNCCCCCCNc2ccnc3cc(Cl)ccc23)O[C@@H]2O[C@@]3(C)CC[C@H]4[C@H](C)CC[C@@H]1[C@@]24OO3	30.7	55.6 nM	0.9	3400 nM	370 nM	19000 nM	53.6 nM
C[C@H]1[C@@H](OC(=O)CCN2CCN(c3ccnc4cc(Cl)ccc34)CC2)O[C@@H]2O[C@@]3(C)CC[C@H]4[C@H](C)CC[C@@H]1[C@@]24OO3	4.5	10.1 nM	1	14000 nM	6580 nM	44600 nM	10 nM
C[C@H]1[C@H](OC(=O)CCN2CCCC2)O[C@@H]2O[C@@]3(C)CC[C@H]4[C@H](C)CC[C@@H]1[C@@]24OO3	–	11.3 nM	1	–	–	–	11.4 nM
C[C@H]1[C@H](OC(=O)CCN2CCOCC2)O[C@@H]2O[C@@]3(C)CC[C@H]4[C@H](C)CC[C@@H]1[C@@]24OO3	5.7	6.23 nM	1.4	27300 nM	4800 nM	> 50000 nM	9.02 nM
CCN(CC)CCC(=O)O[C@@H]1O[C@@H]2O[C@@]3(C)CC[C@H]4[C@H](C)CC[C@@H]([C@H]1C)[C@@]24OO3	5	13 nM	1	30400 nM	6020 nM	> 50000 nM	13.6 nM
C[C@H]1[C@H](OC(=O)CCN(C)Cc2ccccc2)O[C@@H]2O[C@@]3(C)CC[C@H]4[C@H](C)CC[C@@H]1[C@@]24OO3	5.6	5.3 nM	1.2	25000 nM	4480 nM	> 50000 nM	6.16 nM
CC(C)NCCC(=O)O[C@@H]1O[C@@H]2O[C@@]3(C)CC[C@H]4[C@H](C)CC[C@@H]([C@H]1C)[C@@]24OO3	–	16.9 nM	1.1	–	13000 nM	–	18.7 nM
C[C@H]1[C@H](OC(=O)CCN2CCNCC2)O[C@@H]2O[C@@]3(C)CC[C@H]4[C@H](C)CC[C@@H]1[C@@]24OO3	3.5	9.22 nM	1.7	31000 nM	8910 nM	> 50000 nM	16 nM
C[C@H]1[C@H](OC(=O)CCN2CCN(C)CC2)O[C@@H]2O[C@@]3(C)CC[C@H]4[C@H](C)CC[C@@H]1[C@@]24OO3	4.1	7.16 nM	1.8	27200 nM	6550 nM	> 50000 nM	12.6 nM
C[C@H]1[C@H](OC(=O)CCN2CCN(c3ccccc3)CC2)O[C@@H]2O[C@@]3(C)CC[C@H]4[C@H](C)CC[C@@H]1[C@@]24OO3	4.8	5.59 nM	1.3	27600 nM	5760 nM	> 50000 nM	7.3 nM
NCCCNc1ccnc2cc(Cl)ccc12	–	240 nM	5.2	–	9830 nM	–	1250 nM
NCCCCNc1ccnc2cc(Cl)ccc12	–	483 nM	4.7	–	11200 nM	–	2270 nM
NCCCCCCNc1ccnc2cc(Cl)ccc12	–	2160 nM	0.9	–	15700 nM	–	1860 nM
Clc1ccc2c(N3CCNCC3)ccnc2c1	–	1460 nM	1.1	–	27600 nM	–	1640 nM
NCCNc1ccnc2cc(Cl)ccc12	–	231 nM	4.9	–	7220 nM	–	1140 nM
C[C@@H]1CC[C@H]2[C@@H](C)C(=O)O[C@@H]3O[C@@]4(C)CC[C@@H]1[C@]32OO4 [ARTEMISININ]	–	–	1	–	–	–	–
C[C@H]1[C@@H](O)O[C@@H]2O[C@@]3(C)CC[C@H]4[C@H](C)CC[C@@H]1[C@@]24OO3 [ARTENIMOL]	–	4.1 nM	0.75	–	–	–	3 nM
